Reference: patent publication US9029381B2, “Cyclopropyl amide derivatives” (Astrazeneca AB, priority 2007, dated 2015)

What was measured:
[1] = biological target: human Histamine H3 receptor (hH3R) (Homo sapiens (Human), UniProt Q9Y5N1); experiment: Guanosine 5'-O-(3-[35S]thio)triphosphate [GTPγS] binding assay; format: biochemical; conditions: antagonist mode vs (R)-α-methyl histamine 30 nM; membranes from CHO cells expressing hH3R
Protocol: (§1) The IC50 and nH can be determined by fitting the data to model 205 in XLfit: y=A+((B−A)/(1+((C/x)^D)). Guanosine 5′-O-(3-[^35S]thio)triphosphate [GTPγS] Binding Assay
A GTPγS binding assay can be used to investigate antagonist properties of compounds in CHO cells (Chinese Hamster Ovary) transfected with human Histamine H3 receptor (hH3R). Membranes from CHO cells expressing hH3R (10 μg/well) are diluted in GTPγS assay buffer (20 mM Hepes, 10 mM MgCl2, 100 mM NaCl, pH 7.4) and preincubated with saponine (3 μg/ml), GDP (10 μM) and PVT-WGA SPA beads (125 μg/well) (Amersham) for 30 minutes. To determine antagonist activity, (R)-α-methyl histamine (30 nM) is added in 96 well SPA plate with [^35S]GTPγS (0.2 nM) and various concentration of H3R antagonists. The GTPγS binding assay is started with addition of the mixture membrane/saponine/GDP and incubated for 90 minutes at room temperature. The amount of bound [^35S]GTPγS is determined by using the MicroBeta Trilux counter (PerkinElmer). The percentage of [^35S]GTPγS bound in each sample is calculated as a percentage of that bound control sample incubated in absence of H3 antagonist. Duplicate determinations are obtained for each concentration, and the data are analyzed using ExcelFit4 to obtain the IC50.

[2] = biological target: human histamine H3 receptors (Homo sapiens (Human), UniProt Q9Y5N1); experiment: Histamine H3 SPA with the agonist radioligand [3H]-N-α-methylhistamine (hH3 binding); conditions: inhibition of [3H]-N-α-methylhistamine (1.4 nM) binding to CHO-K1 membranes expressing full-length human H3 (isoform 445)
Protocol: Histamine H3 SPA with the Agonist Radioligand [^3H]-N-α-Methylhistamine
The H3 binding assay was/can be used to evaluate the ability of at least one compound in accordance with formula I, Ia, Ib, and/or Ic to inhibit [^3H]-N-α-methylhistamine binding to CHO-K1 membranes expressing human histamine H3 receptors (full-length H3, the most prevalent brain isoform 445). In 200 μl 96-well SPA format, human H3 membranes (12.5 μg protein/well) and 1.4 nM [^3H]-N-α-methylhistamine were/can be incubated with at least one compound in accordance with formula I, Ia, Ib, and/or Ic for 1.5 hrs to determine percent effect with respect to total (1% DMSO) and non-specific binding (10 μM imetit). […] Single poke (SP) testing can be done in triplicate.
Membranes, prepared from CHO-K1 cells stably expressing the human histamine H3 receptor, can be obtained from ACS.
Tested formula I, Ia, Ib, and/or Ic compounds were/can be provided as solubilized samples in neat DMSO. Serial dilutions were/can be performed in DMSO.
Plates were/can be 96-well Unifilter GF/B (Perkin Elmer, 6005177). Plates were/can be read on a Perkin Elmer TopCount. CPM data was/can be used to analyze unless DPM data generated by a quench curve was/is required.
• 1. 1 mg/ml BSA was/can be added to assay buffer (AB) on day of assay. • 2. Amounts required for bead/membrane pool in AB were/can be calculated: “P”−need 17.1 ml/assay plate+10 ml PlateMate excess. Buffer volume was/can be split between beads and membranes to allow for polytroning of membranes prior to addition to beads. • a. […] A minimum of 15 minutes was/can be waited prior to adding membranes (See b. below). • b. Membranes (hH3 membranes from CHO cells containing recombinant human H3 receptors, 11.7 mg/ml): membranes were/can be removed from −80° C. and thawed in RT waterbath. (0.0702 mg/ml×P) mg of membranes were/can be resuspended in the remaining volume not used with beads above for 12.5 μg/well final and homogenized briefly at polytron speed 5.0. The homogenized membrane mixture was/can be combined with the beads and a minimum of 30 minutes was/can be waited prior to dispensing to plate. • 3. Formula I, Ia, Ib, and/or Ic compounds: For Single Poke, 2 μl mM of a compound in accordance with formula I, Ia, Ib, and/or Ic was/can be dispensed to Optiplates (triplicate plates) for final a concentration of 10 μM. […] Imetit (see below) was/can be used as a control. • 4. […] [^3H]-N-α-methylhistamine ([^3H]-NAMH): A solution in AB at 14 nM, 10× final concentration of 1.4 nM was/can be prepared. 5 μl samples were/can be calculated in quadruplicate on the 13 counter. If concentration was/is 12-14.5 nM, no adjustment was/is may be required. (For IC50s, use final concentration on calculation tab of ABase template.) Assay • 1. […] 2 μl of the formula I, Ia, Ib, and/or Ic compound dilution was/can be mixed and then transferred into assay plates. DMSO was/can be removed and 2 μl of 100 μM Imetit was/can be added to the wells. • 3. 178 μl bead/membrane mixture was/can be dispensed into the assay plate. • 4. 20 μl [^3H]-NAMH was/can be added with Rapid Plate. The assay plate was/can be sealed and incubated for 1.5 hr on RT shaker at speed ˜6.5. • 5. The assay plate was/can be subsequently centrifuged at 1000 rpm for 10 minutes. • 6. The count was/can be performed on TopCount using one of the 3H SPA H3 Quench programs.
The DPM data was/can be analyzed when tSIS was/is less than that associated with 70% of full scale on the quench curve (tSIS<25%). Otherwise, CPM data was/is used.
as §1

Sequence of human histamine H3 receptors (Q9Y5N1 whole entry, canonical isoform): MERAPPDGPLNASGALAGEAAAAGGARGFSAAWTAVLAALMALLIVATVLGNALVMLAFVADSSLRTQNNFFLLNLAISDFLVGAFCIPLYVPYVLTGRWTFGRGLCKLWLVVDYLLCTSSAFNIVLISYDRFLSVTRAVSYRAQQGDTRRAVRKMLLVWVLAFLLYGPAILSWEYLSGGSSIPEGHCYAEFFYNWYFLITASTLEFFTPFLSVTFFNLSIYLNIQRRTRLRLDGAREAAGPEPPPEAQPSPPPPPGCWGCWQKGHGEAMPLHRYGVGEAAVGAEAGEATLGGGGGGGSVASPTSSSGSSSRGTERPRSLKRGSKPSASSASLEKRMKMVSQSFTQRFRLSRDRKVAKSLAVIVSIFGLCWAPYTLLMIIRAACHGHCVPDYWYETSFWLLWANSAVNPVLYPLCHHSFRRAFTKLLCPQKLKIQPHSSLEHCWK
Sequence of human Histamine H3 receptor (hH3R) (Q9Y5N1 whole entry): as the sequence (Q9Y5N1 whole entry, canonical isoform) above

CCCN1CCN(C(=O)[C@H]2C[C@@H]2c2ccccc2)CC1 (relative stereo) [Example 7, trans-(2-Phenylcyclopropyl)-(4-propylpiperazin-1-yl)methanone]
IC50 [1]: 39.7 nM | IC50 [2]: 146 nM

O=C([C@H]1C[C@@H]1c1ccc(N2CCCC2=O)cc1)N1CCN(C2CCC2)CC1 (relative stereo) [Example 17, trans-1-{4-[2-(4-Cyclobutylpiperazine-1-carbonyl)cyclopropyl]phenyl}pyrrolidin-2-one]
IC50 [1]: 196 nM | IC50 [2]: 433 nM

O=C([C@H]1C[C@@H]1c1ccc(-c2cn[nH]c2)cc1)N1CCN(C2CCC2)CC1 (relative stereo) [Example 20, trans-{2-[4-(1H-Pyrazol-4-yl)phenyl]cyclopropyl}-(4-cyclobutylpiperazin-1-yl)methanone]
IC50 [1]: 33.9 nM | IC50 [2]: 29.1 nM

O=C([C@H]1C[C@@H]1c1cccc(N2CCCC2=O)c1)N1CCN(C2CCC2)CC1 (relative stereo) [Example 34, trans-1-(3-(2-(4-Cyclobutylpiperazine-1-carbonyl)cyclopropyl)phenyl)pyrrolidin-2-one]
IC50 [1]: 23.9 nM | IC50 [2]: 5.09 nM

NC(=O)c1ccc([C@@H]2C[C@H]2C(=O)N2CCN(C3CCC3)CC2)cc1 (relative stereo) [Example 42, 4-((trans)-2-(4-cyclobutylpiperazine-1-carbonyl)cyclopropyl)benzamide]
IC50 [1]: 5.83 nM | IC50 [2]: 14.4 nM

NC(=O)c1ccc([C@@H]2C[C@H]2C(=O)N2CCN(C3CCC3)CC2)cc1 (single isomer, unassigned; enantiomer 2) [Example 44, 4-((trans)-2-(4-cyclobutylpiperazine-1-carbonyl)cyclopropyl)benzamide, enantiomer 2]
IC50 [1]: 834 nM

O=C([C@H]1C[C@@H]1c1ccc(Br)cc1)N1CCN(C2CCC2)CC1 [Example 14, (1S,2S)-(2-(4-bromophenyl)cyclopropyl)(4-cyclobutylpiperazin-1-yl)methanone]
IC50 [1]: 6.81 nM | IC50 [2]: 16.8 nM

O=C([C@@H]1C[C@H]1c1ccc(Br)cc1)N1CCN(C2CCC2)CC1 [Example 15, (1R,2R)-(2-(4-bromophenyl)cyclopropyl)(4-cyclobutylpiperazin-1-yl)methanone]
IC50 [1]: 262 nM | IC50 [2]: 3400 nM

O=C([C@H]1C[C@@H]1c1ccccc1)N1CCN(C2CCC2)CC1 [Example 24, (4-cyclobutylpiperazin-1-yl)((1S,2S)-2-phenylcyclopropyl)methanone]
IC50 [1]: 3.41 nM | IC50 [2]: 3.49 nM

O=C([C@@H]1C[C@H]1c1ccccc1)N1CCN(C2CCC2)CC1 [Example 25, (4-cyclobutylpiperazin-1-yl)((1R,2R)-2-phenylcyclopropyl)methanone]
IC50 [1]: 870 nM | IC50 [2]: 6420 nM

CC(C)N1CCN(C(=O)C2CC2c2cnn(C)c2)CC1 (stereo not drawn) [Example 45, (4-isopropylpiperazin-1-yl)(2-(1-methyl-1H-pyrazol-4-yl)cyclopropyl)methanone]
IC50 [1]: 127 nM

O=C([C@H]1C[C@@H]1c1ccc(-c2cncnc2)cc1)N1CCN(C2CCC2)CC1 [Example 46, (4-cyclobutylpiperazin-1-yl)((1S,2S)-2-(4-(pyrimidin-5-yl)phenyl)cyclopropyl)methanone]
IC50 [1]: 20.2 nM
